Values quoted from earlier work in PMC10591878 (ACS infectious diseases, 2023).

Experiments:
[1] = system: P. falciparum Dd2-B2 parasites; conditions: for MIR: Dd2-B2; for resistant parasites in 3 wells of 3 × 10^7 / resistant parasites in 4 wells of 2.5 × 10^6: Dd2-B2, 3 × EC50
[2] = system: Dd2-B2 Pf20S WT and mutant lines; conditions: β6 N151Y vs Dd2-B2 parental line

SMILES	MIR [1]	resistant parasites in 3 wells of 3 × 10^7 [1]	resistant parasites in 4 wells of 2.5 × 10^6 [1]	EC50 fold shift against selection compound [2] [×]	number of parasites with which resistance was obtained [1]
O=C(NC1CCCC1)[C@@H]1CCCCOc2cccc(c2)C[C@H](N2CCCC2=O)C(=O)N[C@@H](CCN2CCOCC2)C(=O)N1 [TDI-8304]	3×10^7	3/3 wells	0/4 wells	1.7	–
CC(C)C[C@@H](/C=C/S(C)(=O)=O)NC(=O)[C@H](CC(C)C)NC(=O)[C@H](Cc1c[nH]c2ccccc12)NC(=O)CN1CCOCC1 [WLL]	>1 × 10^9	none	0/4 wells	–	2 × 10^9 parasites
